Results: patent US5705501A, “Certain substituted 1-aryl-3-morpholinopropanones to treat Alzheimer's Disease” (priority 1994, dated 1998)
Counter-ions that a name gives are not always drawn.

How the values were obtained:
[1] = test system: TG3 immunoreactivity in OKA treated MSN1a cells; assay: Inhibition of TG3 immunoreactivity in OKA treated MSN1a cells (ELISA); type: cell-based, human; conditions: TG3 antibody; for IC50: Homo sapiens, 1 μM OKA, 0-64 μM drug, 2 hrs at 37° C.
Experimental: This assay can thus be used to determine whether a drug is capable of preventing or intervening in AD by attenuating the production of abnormally phosphorylated paired helical filament epitopes associated with AD. To determine whether a drug is capable of preventing or intervening in AD activity, the MSN1a cells containing tau and associated proteins are treated with OKA capable of greatly increasing immunoreactivity of the MSN1a cells with AD specific monoclonal antibodies. Then, either prior to or concomitantly with OKA treatment, a compound of the present invention is added to the culture. If the compound prevents the induction of the AD epitopes in the MSN1a cells treated with OKA, then it is said to have anti-AD activity. If the AD-specific antibodies are highly reactive with the neuroblastoma cells following OKA treatment in the presence of compound, then the compound is said to be ineffectual against AD.
The MSN1a human neuroblastoma line was subcloned from a population of MSN cells obtained from the laboratory of Dr. Peter Davies (Albert Einstein College of Medicine, New York, N.Y.). Cells were grown and maintained in flasks in RPMI 1640 medium, supplemented with 15% fetal calf serum, 100 U/ml penicillin, 100 U/ml Streptomycin, 0.5 ug/ml fungizone under 7.5% CO2 at 37° C.
Stock solutions of drugs were prepared by dissolving the anhydrous powders to final concentrations of either 10 or 20 mM in 50% aqueous or 100% dimethyl sulfoxide (DMSO), respectively. Working solutions of drugs were prepared by dilution of the stock solutions with Kreb's Ringer in Hepes buffer (KRH) (128 mM NaCl, 5 mM KCl, 2.5 mM CaCl2 1.2 mM MgSO4, 1 mM Na2 HPO4, 10 mM dextrose, 20 mM Hepes, pH 7.4). OKA is maintained as a 1 mM stock solution in DMSO prior to dilution to 4 μM in KRH.
MSN cells grown in 225 cm^2 flasks are removed from the incubator, their medium decanted and replaced with 50 ml pre-warmed KRH. The cells are harvested by scraping prior to sedimentation at 1000 rpm for 5 min. The supernatants are discarded and the cell pellets are resuspended, the cells counted and diluted to a density of 2×10^4 cells/[…]. The cells are then plated in a 96 well plate at 50 μl/well and 25 μl of 4 μM OKA and 25 μl of drug are then added to the appropriate wells; the entire 96 well plate is then incubated for 2 hrs at 37° C. Depending on the dilution of drug added, this yields individual wells containing 1 μM OKA, 0-64 μM drug and 2×10^4 cells in 0.26% DMSO in KRH. The incubation is terminated by the addition of 20 μl of 6X extraction buffer and immediate freezing at -80° C. for at least one hr. The 6X extraction buffer contains: 25 mM Tris-HCl, pH 7.6, 150 mM NaCl, 5 mM EDTA, 24 mM δ-glycerol phosphate, 10 μg/ml APMSF (4-amidinophenylmethane-sulfonyl flouride), and 2.5 μg/ml each of leupeptin, aprotinin, and pepstatin. The plates are thawed in a 37° C. water bath and 20 μl of cell lysate is added to a replica well in an ELISA plate that already contains 80 μl of coating buffer (15 mM Na2 CO3 and 35 mM NaHCO3, pH 9.6). The plates are allowed to coat overnight at 4° C. The plates are washed four times with deionized water and then blocked for 30 min at 37° C. with 200 μl/well pre-warmed 1% bovine serum albumin in 10 mM Tris-HCl, pH 7.4, 150 mM NaCl, 3 mM NaN3 (BSA-TBS). After the blocking solution is removed, 100 μl/well of an appropriate dilution of pre-warmed primary antibody (eg., TG3 or PHF-1) in BSA-TBS is added and incubated at 37° C. for 30 min. Incubation is terminated by washing four times in deionized water at which time 100 μl of an appropriate dilution of pre-warmed secondary antibody (conjugated to alkaline phosphatase) in BSA-TBS is added to each well in the ELISA plate. Incubation is performed for 30 min at 37° C. followed by washing 4 times with deionized water. […] of prewarmed chromogenic substrate (1 mg/ml p-nitrophenyl phosphate in 10% diethanolamine, 3 mM NAN3, 0.5 mM MgCl2, pH 9.8) is added and the plate incubated for 30 min at 37° C. […]

[2] = test system: paired helical filament epitopes (PHF-1) in MSN1a cells; assay: Western blot of PHF-1 immunoreactivity in MSN1a cells treated with okadaic acid; type: cell-based, human
Experimental: FIG. 3 is a western blot showing PHF-1 immunoreactivity in lysates from control and chlorpromazine treated MSN cells treated with okadaic acid.
These compounds are effective at micromolar concentrations, with increased potency being evident when cells are treated prior to the addition of okadaic acid. The effective concentrations appear to be in the range at which these drugs are present in the brain following chronic treatment of psychiatric patients (Svendsen, CN, Psychopharmacology, 90, 316-321, 1986).
To determine the effect of chlorpromazine on the paired helical filament epitopes associated with AD, MSN1a cells expressing paired helical filament epitopes were incubated with […] chlorpromazine (CPZ) or a 0.2% DMSO vehicle control for 2 hours at 37° C. The cells were isolated by centrifugation, boiled for 10 minutes and […] protein from the resulting heat stable supernatants were loaded per lane on an SDS-PAGE gel. The gel was electrophoretically transferred to nitrocellulose membrane and then immunostained with PHF-1. […] The use of the MSN1a cell culture model for screening of novel compounds for therapeutic activity in AD is, therefore, quite warranted.

[3] = test system: paired helical filament epitopes (TG3) in human brain tissue; assay: Direct ELISA with TG3 antibody on post-mortem brain tissue of patients (second retrospective study); type: in vivo; conditions: chlorpromazine treated patients (Rx), N 51, summed absorbance
Excerpt: In a subsequent study, 51 additional patients were identified and the analysis was repeated as above using the TG3 antibody in an ELISA format. The results, summarized in Table 1, clearly reproduce and confirm the first retrospective study. Immunohistopathological studies carried out on several brain regions from these patients were consistent with these ELISA results. Taken together, these two studies provide evidence of the therapeutic benefit of chlorpromazine in AD and validate the use of the MSN1a model for the identification of therapeutically useful compounds for the treatment of AD.
*Signal is calculated by summing the means of duplicate absorbance
readings (direct ELISA using TG3 antibody) for 8 dilutions of all lysates
prepared by one to two serial dilutions.

[4] = test system: PHF epitope (ADAP) levels in human brain tissue; assay: ALZ-EIA of PHF epitope (ADAP) levels in post-mortem brain tissue of chronically treated patients (first retrospective study); type: in vivo; conditions: chronically chlorpromazine treated patients (Rx), Brodman areas 10 and 38, ALZ-EIA
Experimental: FIG. 4A is a chart showing relative ADAP concentrations in Brodman Area 10 in Alzheimer's Disease patients, normal controls and patients treated with chloropromazine (Rx).
FIG. 4B is a chart showing relative ADAP concentrations in Brodman Area 38 in Alzheimer's Disease patients, normal controls and patients treated with chloropromazine (Rx).
Frontal and cortical brain tissue specimens obtained at autopsy from patients chronically treated with chlorpromazine were analyzed using the ALZ-EIA method previously described (Ghanbari, H A, et al, JAMA, 263, 2907, 1990). The results are shown in FIGS. 4A and 4B frontal (Broadman area 10) and temporal (Broadman area 38) regions, respectively. The brain tissue (post-mortem) from approximately the same number of (age matched) normal controls and Alzheimer's Disease patients were also analyzed and are presented in these figures as negative and positive controls (for normal and AD, respectively).

[5] = test system: PHF-1 and TG3 epitopes in MSN1a cells; assay: Generation of Alzheimer brain specific epitopes in MSN1a cells; type: cell-based, human; conditions: epitopes absent or very low in untreated cells
Experimental: Conditions were established which led to hyperphosphorylation of the proteins known to be involved in PHF formation. Using monoclonal antibodies PHF-1 and TG3 generated to human PHF preparations, the effects of a variety of manipulations of the phosphorylation state of these proteins were tested. These tests required that most of the abnormal epitopes recognized by these monoclonal antibodies in the human Alzheimer brain should be generated in the MSN1a cells. […] These epitopes are either absent or present at a very low level in untreated MSN1a cells.
Shown in FIG. 2A are bar graphs (percent of AD) of the ELISA immunoreactivity of brain preparations (AD or normal) to either PHF-1 or TG3. Shown in FIG. 2B are bar graphs (percent of MSN+) of the ELISA immunoreactivity of MSN1 a cell preparations (minus or plus okadaic acid) to either PHF-1 or TG3. The MSN1a cell preparations plus vs minus okadaic acid closely parallel the AD vs normal brain preparations. […] The cell culture system according to the invention in which epitopes characteristic of PHF can be readily generated and subsequently recognized by the specific Alzheimer brain specific antibodies provides an assay suitable for screening compounds for their ability to block the production of these phosphorylated epitopes.

SMILES | IC50 [1] [µM] | further results
CN(C)CCCN1c2ccccc2Sc2ccc(Cl)cc21 [Chlorpromazine, chlorpromazine] | ~70 | inhibition of production of aberrant phosphorylated epitopes in the MSN1a cell culture model (in words) [1]: effective in inhibiting the production of these aberrant phosphorylated epitopes; production of paired helical filament epitopes ([2]; 100 mM chlorpromazine, 2 hours at 37° C., PHF-1 immunostain): greatly decreased the production of paired helical filament epitopes; inhibition of expression of PHF epitopes upon treatment of MSN1a cells with okadaic acid ([2]; AD specific antibodies, FIG. 3): markedly inhibit the expression of PHF epitopes; SIGNAL ± SEM, Temporal ([3]; Normal 0.00 ± 0.00, AD 17.55 ± 2.82): 0.16 ± 0.11; SIGNAL ± SEM, Frontal ([3]; Normal 0.12 ± 0.12, AD 16.54 ± 2.59): 0.12 ± 0.11; PHF epitope levels in brain [4]: low PHF epitope levels similar to normal controls
O=C(CCN1CCOCC1)c1cccc(Cl)c1 [Example 38, 1-(m-Chlorophenyl)-3-(4'-morpholinyl)-1-propanone hydrochloride] | 5.8 | –
CC1CN(CCC(=O)c2ccccc2)C(C)CN1CCC(=O)c1ccccc1 (centres unmarked) [Example 45, 1,4-Bis-(3'-Phenylpropane-3'-one-1'-yl)-2,5-dimethylpiperazine dihydrochloride] | 11.4 | –
CN(c1cccc(C(=O)CCN2CCOCC2)c1)S(C)(=O)=O [Example 34, 1-[m-(N-Methyl-N-methylsulfonylamino)phenyl]-3-(4'-morpholinyl)-1-propanone hydrochloride] | 7.5 | –
CCCN1CCN(CCC(=O)c2cccc(C)c2)CC1 [Example 5, 1-(m-Methylphenyl)-3-(4'-propyl-1'-piperazinyl)-1-propanone dihydrochloride] | 15.8 | –
C=C1[C@@H](O)[C@@H]2O[C@]3(CC[C@H](/C=C/[C@@H](C)[C@@H]4CC(C)=C[C@@]5(O[C@H](C[C@@](C)(O)C(=O)O)CC[C@H]5O)O4)O3)CC[C@H]2O[C@@H]1[C@@H](O)C[C@H](C)[C@H]1O[C@@]2(CCCCO2)CC[C@H]1C [okadaic acid] | – | generation of the epitopes associated with Alzheimer brain specific monoclonal antibodies [5]: found to generate the epitopes
Cc1cccc(C(=O)CCN2CCOCC2)c1 [Example 9, 1-(m-Methylphenyl)-3-(4'-morpholinyl)-1-propanone hydrochloride] | 5.4 | –
O=C(CCN1CCOCC1)c1cc(Cl)ccc1Cl [Example 17, 1-(2",5"-Dichlorophenyl)-3-(4'-morpholinyl)-1-propanone hydrochloride] | 15.8 | –
O=C(CCN1CCOCC1)c1cccc([N+](=O)[O-])c1 [Example 30, 1-(m-Nitrophenyl)-3-(4'-morpholinyl)-1-propanone hydrochloride] | 5.9 | –
CC1CN(CCC(=O)c2cccc([N+](=O)[O-])c2)CC(C)N1 (centres unmarked) [Example 26, 1-(m-Nitrophenyl)-3-(2',6'-dimethyl-4'-piperazinyl)-1-propanone dihydrochloride] | 7.3 | –
CN1CCN(CCC(=O)c2ccccc2)CC1 [Example 1, 1-Phenyl-3-(4'-methyl-1'-piperazinyl)-1-propanone dihydrochloride] | 12.4 | –
CN1CCN(CCC(=O)c2ccccc2F)CC1 [Example 23, 1-(o-Fluorophenyl)-3-(4'-methyl-1'-piperazinyl)-1-propanone dihydrochloride] | 13.2 | –
O=C(CCN1CCOCC1)c1ccc(Br)cc1 [Example 42, 1-(p-Bromophenyl)-3-(4'-morpholinyl)-1-propanone hydrochloride] | 6.4 | –
COc1ccccc1C(=O)CCN1CCOCC1 [Example 13, 1-(o-Methoxyphenyl)-3-(4'-morpholinyl)-1-propanone hydrochloride] | 9.1 | –
